Values quoted from earlier work, collected in publication PMC9010257 (Clinical and Translational Science, 2022).

Test system: TNAP

| Structure (SMILES) | inhibitory activity | specificity for TNAP |
| --- | --- | --- |
| Cn1c(=O)c2[nH]cnc2n(C)c1=O [theophylline] | weak inhibitory activity | not specific for TNAP |
| c1ccc([C@H]2CN3CCSC3=N2)cc1 [levamisole] | weak inhibitory activity | not specific for TNAP |
